Reference: patent US20250206732A1, “COMPOUNDS AND METHODS FOR THE TARGETED DEGRADATION OF KRAS” (Arvinas Operations, Inc., priority 2022, published 2025)

Target: T1, AsPC-1 HiBiT-KRASG12D (Homo sapiens, UniProt P01116, G12D)
T1 construct: insert the HiBiT tag onto the N-terminus of one or more of the endogenous KRAS alleles; endogenous in cells; host or cells: AsPC-1 (ATCC CRL-1682), CRISPR-Cas9 knock-in clone, one tagged allele
Assay: HiBiT degradation assay (G12D), AsPC-1 HiBiT-KRASG12D cells
Assay type: cell-based
Conditions: 24 hours treatment; for DC50: AsPC-1 HiBiT-KRASG12D cells, HiBiT luminescence; for Dmax: ASPC1, AsPC-1 HiBiT-KRASG12D cells, maximum degradation observed
Summary of the method: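 Luminescence read-out of HiBiT-tagged endogenous KRASG12D in AsPC-1 cells after 24 h compound exposure at 37° C; lytic Nano-Glo HiBiT detection, 45 min at room temperature. A parallel alamar blue read (4 h) checked viability, normalized to DMSO-only controls.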

T1 sequence (P01116 1-188 isoform P01116-2 G12D): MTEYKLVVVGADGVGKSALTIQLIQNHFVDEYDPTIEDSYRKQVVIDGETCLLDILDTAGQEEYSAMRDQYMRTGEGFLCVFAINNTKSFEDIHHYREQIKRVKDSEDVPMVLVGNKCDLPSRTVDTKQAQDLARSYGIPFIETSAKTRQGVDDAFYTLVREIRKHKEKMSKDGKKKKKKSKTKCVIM

SMILES	DC50 [µM]	Dmax [%]
CCc1cccc2cccc(-c3ncc4c(N5CC6CCC(C5)N6)nc(OC[C@@]56CCCN5[C@H](COc5cc([C@@H](C(=O)N7C[C@H](O)C[C@H]7C(=O)N[C@@H](C)c7ccc(-c8scnc8C)cc7)C(C)C)on5)CC6)nc4c3F)c12 [Compound 55, (2S,4R)-1-[(2S)-2-(3-{[(3S,7aS)-7a-{[(4-{3,8-diazabicyclo[3.2.1]octan-3-yl}-7-(8-ethylnaphthalen-1-yl)-8-fluoropyrido[4,3-d]pyrimidin-2-yl)oxy]methyl}-hexahydro-1H-pyrrolizin-3-yl]methoxy}-1,2-oxazol-5-yl)-3-methylbutanoyl]-4-hydroxy-N-[(1S)-1-[4-(4-methyl-1,3-thiazol-5-yl)phenyl]ethyl]pyrrolidine-2-carboxamide]	> 3	
CCc1cccc2cc(O)cc(-c3ncc4c(N5CC6CCC(C5)N6)nc(OCCN5CCC(F)(CN6CCN(c7cc([C@H](C(=O)N8C[C@H](O)C[C@H]8C(=O)N[C@@H](C)c8ccc(-c9scnc9C)cc8)C(C)C)on7)CC6)CC5)nc4c3F)c12 [Compound 262]	< 0.6	80 to 100
CCc1cccc2cc(O)cc(-c3ncc4c(N5CC6CCC(C5)N6)nc(N5CCC(CN6CCC(CC7CN(c8cc([C@@H](C(=O)N9C[C@H](O)C[C@H]9C(=O)N[C@@H](C)c9ccc(-c%10scnc%10C)cc9)C(C)C)on8)C7)CC6)CC5)nc4c3F)c12 [Compound 193, (2S,4R)-1-[(2S)-2-(3-{3-[(1-{[1-(4-{3,8-diazabicyclo[3.2.1]octan-3-yl}-7-(8-ethyl-3-hydroxynaphthalen-1-yl)-8-fluoropyrido[4,3-d]pyrimidin-2-yl)piperidin-4-yl]methyl}piperidin-4-yl)methyl]azetidin-1-yl}-1,2-oxazol-5-yl)-3-methylbutanoyl]-4-hydroxy-N-[(1S)-1-[4-(4-methyl-1,3-thiazol-5-yl)phenyl]ethyl]pyrrolidine-2-carboxamide]	> 3	
CCc1cccc2cc(O)cc(-c3ncc4c(N5CC6CCC(C5)N6)nc(N5CC(N6CCC(CC7CN(c8cc([C@@H](C(=O)N9C[C@H](O)C[C@H]9C(=O)N[C@@H](C)c9ccc(-c%10scnc%10C)cc9)C(C)C)on8)C7)CC6)C5)nc4c3F)c12 [Compound 180]	> 3	
C#Cc1c(F)ccc2cc(O)cc(-c3ncc4c(N5CC6CCC(C5)N6)nc(OCCN5CCC(CN6CCN(c7cc([C@@H](C(=O)N8C[C@H](O)C[C@H]8C(=O)N[C@@H](C)c8ccc(-c9ccnn9C)cc8)C(C)C)on7)CC6)CC5)nc4c3F)c12 [Compound 170, (2S,4R)-1-[(2S)-2-(3-{4-[(1-{2-[(4-{3,8-diazabicyclo[3.2.1]octan-3-yl}-7-(8-ethynyl-7-fluoro-3-hydroxynaphthalen-1-yl)-8-fluoropyrido[4,3-d]pyrimidin-2-yl)oxy]ethyl}piperidin-4-yl)methyl]piperazin-1-yl}-1,2-oxazol-5-yl)-3-methylbutanoyl]-4-hydroxy-N-[(1S)-1-[4-(1-methyl-1H-pyrazol-5-yl)phenyl]ethyl]pyrrolidine-2-carboxamide]	1 to 3	20 to 60
CCc1cccc2cc(O)cc(-c3ncc4c(N5CC6CCC(C5)N6)nc(OCCN5CCC6(CC5)CN(c5cc([C@H](C(=O)N7C[C@H](O)C[C@H]7C(=O)NCc7ccc(-c8scnc8C)cc7)C(C)C)on5)C6)nc4c3F)c12 (relative stereo) [Compound 98, (2S,4R)-1-[(2R*)-2-[3-(7-{2-[(4-{3,8-diazabicyclo[3.2.1]octan-3-yl}-7-(8-ethyl-3-hydroxynaphthalen-1-yl)-8-fluoropyrido[4,3-d]pyrimidin-2-yl)oxy]ethyl}-2,7-diazaspiro[3.5]nonan-2-yl)-1,2-oxazol-5-yl]-3-methylbutanoyl]-4-hydroxy-N-{[4-(4-methyl-1,3-thiazol-5-yl)phenyl]methyl}pyrrolidine-2-carboxamide]	< 0.6	80 to 100
CCc1cccc2cc(O)cc(-c3ncc4c(N5CC6CCC(C5)N6)nc(OCCN5CC[C@@H]6[C@@H](CCN6c6cc([C@H](C(=O)N7C[C@H](O)C[C@H]7C(=O)N[C@@H](C)c7ccc(-c8scnc8C)cc7)C(C)C)on6)C5)nc4c3F)c12 (relative stereo) [Compound 74, (2S,4R)-1-[(2R*)-2-{3-[(3aR**,7aR***)-5-{2-[(4-{3,8-diazabicyclo[3.2.1]octan-3-yl}-7-(8-ethyl-3-hydroxynaphthalen-1-yl)-8-fluoropyrido[4,3-d]pyrimidin-2-yl)oxy]ethyl}-octahydro-1H-pyrrolo[3,2-c]pyridin-1-yl]-1,2-oxazol-5-yl}-3-methylbutanoyl]-4-hydroxy-N-[(1S)-1-[4-(4-methyl-1,3-thiazol-5-yl)phenyl]ethyl]pyrrolidine-2-carboxamide]	< 0.6	80 to 100
C#Cc1c(F)ccc2cccc(-c3ncc4c(N5CC6CCC(C5)N6)nc(OC[C@@]56CCCN5[C@@H](COC(=O)N5CCN(c7cc([C@H](C(=O)N8C[C@H](O)C[C@H]8C(=O)N[C@@H](C)c8ccc(-c9scnc9C)cc8)C(C)C)on7)CC5)CC6)nc4c3F)c12 (relative stereo) [Compound 334, [(3R,8S)-8-[[4-(3,8-diazabicyclo[3.2.1]octan-3-yl)-7-(8-ethynyl-7-fluoro-1-naphthyl)-8-fluoro-pyrido[4,3-d]pyrimidin-2-yl]oxymethyl]-1,2,3,5,6,7-hexahydropyrrolizin-3-yl]methyl 4-[5-[(1R)-1-[(2S,4R)-4-hydroxy-2-[[(1S)-1-[4-(4-methylthiazol-5-yl)phenyl]ethyl]carbamoyl]pyrrolidine-1-carbonyl]-2-methyl-propyl]isoxazol-3-yl]piperazine-1-carboxylate]	< 0.6	60 to 80
CCc1cccc2cc(O)cc(-c3ncc4c(N5CC6CCC(C5)N6)nc(OCCN5CCC(N(C)c6cc([C@@H](C(=O)N7C[C@H](O)C[C@H]7C(=O)N[C@@H](C)c7ccc(-c8scnc8C)cc7)C(C)C)on6)CC5)nc4c3F)c12 (relative stereo) [Compound 137, (2S,4R)-1-[(2R*)-2-{3-[(1-{2-[(4-{3,8-diazabicyclo[3.2.1]octan-3-yl}-7-(8-ethyl-3-hydroxynaphthalen-1-yl)-8-fluoropyrido[4,3-d]pyrimidin-2-yl)oxy]ethyl}piperidin-4-yl)(methyl)amino]-1,2-oxazol-5-yl}-3-methylbutanoyl]-4-hydroxy-N-[(1S)-1-[4-(4-methyl-1,3-thiazol-5-yl)phenyl]ethyl]pyrrolidine-2-carboxamide]	1 to 3	20 to 60
Cc1ncsc1-c1ccc([C@H](C)NC(=O)[C@@H]2C[C@@H](O)CN2C(=O)[C@H](c2cc(OC[C@@H]3CC[C@]4(COc5nc(N6CC7CCC(C6)N7)c6cnc(-c7cc(O)cc(Cl)c7C7CC7)c(F)c6n5)CCCN34)no2)C(C)C)cc1 [Compound 65, (2S,4R)-1-[(2S)-2-(3-{[(3S,7aS)-7a-({[7-(3-chloro-2-cyclopropyl-5-hydroxyphenyl)-4-{3,8-diazabicyclo[3.2.1]octan-3-yl}-8-fluoropyrido[4,3-d]pyrimidin-2-yl]oxy}methyl)-hexahydro-1H-pyrrolizin-3-yl]methoxy}-1,2-oxazol-5-yl)-3-methylbutanoyl]-4-hydroxy-N-[(1S)-1-[4-(4-methyl-1,3-thiazol-5-yl)phenyl]ethyl]pyrrolidine-2-carboxamide]	1 to 3	< 20
Cc1ncsc1-c1ccc([C@H](C)NC(=O)[C@@H]2C[C@@H](O)CN2C(=O)[C@@H](c2cc(OCC3CCN(CCOc4nc(N5CC6CCC(C5)N6)c5cnc(-c6cc(O)cc(Cl)c6C(F)(F)F)c(F)c5n4)CC3)no2)C(C)C)cc1 [Compound 24, (2S,4R)-1-[(2R)-2-[3-({1-[2-({7-[3-chloro-5-hydroxy-2-(trifluoromethyl)phenyl]-4-{3,8-diazabicyclo[3.2.1]octan-3-yl}-8-fluoropyrido[4,3-d]pyrimidin-2-yl}oxy)ethyl]piperidin-4-yl}methoxy)-1,2-oxazol-5-yl]-3-methylbutanoyl]-4-hydroxy-N-[(1S)-1-[4-(4-methyl-1,3-thiazol-5-yl)phenyl]ethyl]pyrrolidine-2-carboxamide]	< 0.6	80 to 100
C#Cc1c(F)ccc2cc(O)cc(-c3ncc4c(N5CC6CCC(C5)N6)nc(OCCN5CCC(C6CN(c7cc([C@H](C(=O)N8C[C@H](O)C[C@H]8C(=O)N[C@@H](C)c8ccc(-c9scnc9C)cc8)C(C)C)on7)C6)CC5)nc4c3F)c12 [Compound 185]	< 0.6	80 to 100
CCc1cccc2cc(O)cc(-c3ncc4c(N5CC6CCC(C5)N6)nc(OCCN5CCC(COCC(=O)N[C@H](C(=O)N6C[C@H](O)C[C@H]6C(=O)N[C@@H](C)c6ccc(-c7scnc7C)c(Cl)c6)C(C)(C)C)CC5)nc4c3F)c12 [Compound 332, (2S,4R)—N-[(1S)-1-[3-chloro-4-(4-methyl-1,3-thiazol-5-yl)phenyl]ethyl]-1-[(2S)-2-{2-[(1-{2-[(4-{3,8-diazabicyclo[3.2.1]octan-3-yl}-7-(8-ethyl-3-hydroxynaphthalen-1-yl)-8-fluoropyrido[4,3-d]pyrimidin-2-yl)oxy]ethyl}piperidin-4-yl)methoxy]acetamido}-3,3-dimethylbutanoyl]-4-hydroxypyrrolidine-2-carboxamide]	0.6 to 1	80 to 100
C#Cc1c(F)ccc2cc(O)cc(-c3ncc4c(N5CC6CCC(C5)N6)nc(OCCN5CCC(CC6(F)CCN(CC(=O)N[C@H](C(=O)N7C[C@H](O)C[C@H]7C(=O)N[C@@H](C)c7ccc(-c8scnc8C)cc7)C(C)(C)C)CC6)CC5)nc4c3F)c12 [Compound 157, (2S,4R)-1-[(2S)-2-(2-{4-[(1-{2-[(4-{3,8-diazabicyclo[3.2.1]octan-3-yl}-7-(8-ethynyl-7-fluoro-3-hydroxynaphthalen-1-yl)-8-fluoropyrido[4,3-d]pyrimidin-2-yl)oxy]ethyl}piperidin-4-yl)methyl]-4-fluoropiperidin-1-yl}acetamido)-3,3-dimethylbutanoyl]-4-hydroxy-N-[(1S)-1-[4-(4-methyl-1,3-thiazol-5-yl)phenyl]ethyl]pyrrolidine-2-carboxamide]	< 0.6	80 to 100
